Data from ChEMBL document CHEMBL1201862, “PubChem BioAssay data set” (2004).
Blank lines part the entries; values can stand above or below the compound they belong to. The source made the active and inactive calls.

Experiments:
[1] = biological target: T1, Heat shock factor protein 1 (Mus musculus, UniProt P38532); assay: enhancement of HSF1-driven luciferase signal – cell-based, NIH3T3, luminescence, dose retest, confirmation (AID 435004); type: functional;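 further: stress induced by proteasome inhibitor MG132 added 30 min after compound; luciferase reporter driven by HSF1 response element in NIH3T3 cells; actives raise luminescence as potentiators of the MG132 stress response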
T1 sequence (P38532 whole entry): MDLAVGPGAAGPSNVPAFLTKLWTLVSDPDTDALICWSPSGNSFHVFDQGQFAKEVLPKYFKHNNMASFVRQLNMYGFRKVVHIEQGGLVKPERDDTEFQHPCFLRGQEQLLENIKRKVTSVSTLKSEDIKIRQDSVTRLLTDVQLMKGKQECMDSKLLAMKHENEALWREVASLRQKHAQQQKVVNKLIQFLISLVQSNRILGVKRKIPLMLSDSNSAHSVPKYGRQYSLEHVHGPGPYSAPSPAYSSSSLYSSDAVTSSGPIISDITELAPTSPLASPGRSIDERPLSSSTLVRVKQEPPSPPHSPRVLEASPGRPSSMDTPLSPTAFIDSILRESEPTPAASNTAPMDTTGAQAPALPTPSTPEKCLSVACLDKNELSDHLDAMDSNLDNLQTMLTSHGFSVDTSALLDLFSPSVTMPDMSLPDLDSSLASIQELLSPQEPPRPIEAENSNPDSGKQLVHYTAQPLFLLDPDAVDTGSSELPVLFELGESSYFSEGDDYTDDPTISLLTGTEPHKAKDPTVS

[2] = viability of uninfected HEp-2 cells – cell-based, HTS, cytotoxicity control for RSV inhibitor project, dose response (AID 2410); type: functional; settings: human respiratory syncytial virus
[3] = biological target: T2, Rac GTPase-activating protein 1 (Homo sapiens, UniProt Q9H0H5); assay: blockers of MgcRacGAP-driven Rac1 GTP hydrolysis – biochemical, ADP Hunter fluorescence, primary and confirmatory, confirmation (AID 624330); type: functional
T2 sequence (Q9H0H5 whole entry): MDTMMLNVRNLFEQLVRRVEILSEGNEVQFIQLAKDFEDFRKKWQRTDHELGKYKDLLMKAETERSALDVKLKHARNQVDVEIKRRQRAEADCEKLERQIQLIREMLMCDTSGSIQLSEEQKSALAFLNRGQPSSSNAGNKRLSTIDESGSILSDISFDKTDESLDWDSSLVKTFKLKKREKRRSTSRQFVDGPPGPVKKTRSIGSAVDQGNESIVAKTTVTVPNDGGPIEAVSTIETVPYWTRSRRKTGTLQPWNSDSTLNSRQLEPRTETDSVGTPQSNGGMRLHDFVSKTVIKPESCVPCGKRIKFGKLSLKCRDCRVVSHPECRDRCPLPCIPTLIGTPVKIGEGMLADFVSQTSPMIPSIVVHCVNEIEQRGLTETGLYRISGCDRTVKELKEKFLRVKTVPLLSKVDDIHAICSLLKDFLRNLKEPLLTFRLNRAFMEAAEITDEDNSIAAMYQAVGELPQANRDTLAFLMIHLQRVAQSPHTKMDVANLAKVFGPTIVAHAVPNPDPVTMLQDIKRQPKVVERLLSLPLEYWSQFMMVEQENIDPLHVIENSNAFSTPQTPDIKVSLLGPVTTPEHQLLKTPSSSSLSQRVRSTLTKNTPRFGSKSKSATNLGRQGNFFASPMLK

[4] = P. falciparum Dd2 growth inhibitors, dose response, SYBR Green, cherry-picked samples (AID 1159567); type: functional, cell-based

EC50 [1]: 131 µM (active)
SMILES: O=[N+]([O-])c1ccc(-c2csc(Nc3ccccc3)[n+]2Cc2ccccc2)cc1

SMILES: Cc1ccccc1[C@@]1(C)ON(c2ccccc2C(F)(F)F)C1=O
CC50 [2]: 21.9 µM (active)

IC50 [3]: 73 µM (active)
SMILES: O=C(Nc1ccccn1)c1ccc2ccccc2c1O

SMILES: Cc1ccc(-n2nc3c(=O)n(CCCC(=O)NCCc4ccccc4C)nc(C)c3c2C)cc1
CC50 [2]: > 50 µM (active)

EC50 [1]: > 260 µM (inactive)
SMILES: COc1ccccc1C(=O)NCCCNC(=O)c1ccccn1

EC50 [1]: > 260 µM (inactive)
SMILES: CCOc1ccc(CNC(=O)c2cccc(NC(=O)C3=C(C)OCCS3)c2)cc1

IC50 [3]: 38.6 µM (active)
SMILES: CN(C)c1ccc(C=Cc2cnccn2)cc1

IC50 [3]: 51.9 µM (active)
SMILES: COc1cc(/C=C/C(C)=NNc2ccccc2)ccc1O

SMILES: CCOC(=O)N1CCC(/N=c2\c(O)c(O)\c2=N/c2cccc(CC)c2)CC1
CC50 [2]: 39.3 µM (active)

IC50 [3]: 95.1 µM (active)
SMILES: O=C(Cn1cc(C(F)(F)F)ccc1=O)N/N=C/c1ccc(O)cc1

SMILES: C[C@H](CCC(=O)O)[C@H]1CC[C@H]2[C@@H]3CC[C@@H]4CC(=O)CC[C@]4(C)[C@H]3CC(=O)[C@]12C
EC50 [1]: > 260 µM (inactive)

SMILES: COc1cccc(CN2[C@@H](CO)[C@H](c3ccccc3)C23CN(C(=O)C2CCCC2)C3)c1
AC50 [4]: 5.77 µM (active)

SMILES: CCC(=O)N1CC2(C1)CN(Cc1cccc(Cl)c1)[C@H](CO)c1c2c2ccc(OC)cc2n1C
AC50 [4]: 10.5 µM (active)

SMILES: CC(C)NC(=O)N1CCCCN2[C@H](CO)[C@@H](c3ccc(C#C[C@H](C)O)cc3)[C@@H]2C1
AC50 [4]: 19.5 µM (active)

SMILES: CO[C@H]1CN(C)C(=O)c2ccc(NC(=O)c3cccc(Oc4ccccc4)c3)cc2OC[C@@H](C)NC[C@H]1C
AC50 [4]: 7.72 µM (active)

SMILES: CNC[C@H]1Oc2ncc(-c3ccc(OC)cc3)cc2C(=O)N([C@H](C)CO)C[C@H]1C
AC50 [4]: 7.75 µM (active)

SMILES: CCC(=O)N1CCC2(CC1)CN(Cc1ccc(Cl)cc1)[C@H](CO)c1[nH]c3cc(OC)ccc3c12
AC50 [4]: 3.07 µM (active)

SMILES: OC[C@H]1[C@@H](c2ccc(-c3cccnc3)cc2)[C@H]2CN(CC3CC3)CCCCN21
AC50 [4]: 6.52 µM (active)

SMILES: COc1cccc(CN2[C@@H](CO)[C@H](c3ccccc3)C23CN(C(=O)C2CCOCC2)C3)c1
AC50 [4]: 7.03 µM (active)

SMILES: COc1ccc2c3c([nH]c2c1)[C@@H](CO)N(Cc1ccccc1Cl)CC31CCN(C(=O)C2CC2)CC1
AC50 [4]: 5.82 µM (active)
